Assay [1] concerns S. aureus ATCC 33591 (MRSA) biofilm. Type of assay: cell-based, Staphylococcus aureus. The settings on record: ATCC 33591, 24 h. The protocol: (§1) The MBECs values were determined according to the method reported previously. Briefly, 24-h cultures of S. aureus, namely: S. aureus ATCC 25923, S. aureus ATCC 6538, S. aureus ATCC 33591 (MRSA), S. aureus ATCC 9144 and S. aureus ATCC 12598 were diluted to a concentration of 0.5 × 10^7 CFU/mL and added to the test wells of polystyrene microdilution flat-bottom plates. After 24-h of incubation at 37 °C, the wells were rinsed three times with PBS to remove non-adherent cells. Subsequently, 100 μL of the test compounds over a concentration range 0.5–256 µg/mL were added to each well and incubated again for 24 h at 37 °C. After this period, 20 μL of the resazurin (7-hydroxy-3H-phenoxazin-3-one-10-oxide, 4 mg/mL) solution was added to each well. After 1 h of incubation, the MBECs were read out. The determined values were recorded as the lowest concentration at which the reduction of resazurin (from blue to pink) was lower or equal to 10 ± 0.5% as compared to the positive (100%) and negative (0%) controls. All experiments were performed in triplicate.

Assay [2] deals with S. aureus ATCC 9144 biofilm. Type of assay: cell-based, Staphylococcus aureus. The settings on record: ATCC 9144, 24 h. The protocol: as §1
The subject of assay [3] is S. aureus ATCC 12598 biofilm. Format: cell-based, Staphylococcus aureus. The settings on record: ATCC 12598, 24 h. As for the experimental part: as §1
Assay [4] has as its system S. aureus ATCC 25923 biofilm. Format: cell-based, Staphylococcus aureus. The settings on record: ATCC 25923, 24 h. The protocol:
as §1

The test system of assay [5] is S. aureus ATCC 6538 biofilm. Type of assay: cell-based, Staphylococcus aureus. The settings on record: ATCC 6538, 24 h. As for the experimental part:
as §1

The test system of assay [6] is reference strains of S. aureus. Type of assay: cell-based, Staphylococcus aureus. The settings on record: reference strains of, 24 h. As for the experimental part: Examination of antimicrobial activity of the test compounds was conducted on reference strains of bacteria assigned to ESKAPE group of pathogens: Enterococcus faecium ATCC 700221, Klebsiella pneumoniae ATCC 700603, Acinetobacter baumannii ATCC BAA-1605, Pseudomonas aeruginosa ATCC 9027, Klebsiella aerogenes ATCC 13048 (formerly Enterobacter aerogenes) and reference strains of Staphylococcus aureus, namely: S. aureus ATCC 25923, S. aureus ATCC 6538, S. aureus ATCC 33591 (MRSA), S. aureus ATCC 9144 and S. aureus ATCC 12598. All the strains were stored at −80 °C in Roti®-Store cryo vials (Carl Roth GmbH, Karlsruhe, Germany) and before the tests were transferred into fresh Mueller-Hinton Medium (BioMaxima, Lublin, Poland) and incubated for 24 h at 37 °C. Subsequently, each bacterial inoculum was seeded on Mueller-Hinton Agar plates (BioMaxima) and incubated again for 24 h. The cultures prepared in this way were used in further antimicrobial assays and prepared as described above. The MIC values were determined by the broth microdilution method according to Clinical and Laboratory Standards Institute Protocol. […] The experiments were conducted on 96-well microtiter plates, with a final volume of 100 µL. Cell densities were adjusted spectrophotometrically (Multiskan™ GO Microplate Spectrophotometer, Thermo Scientific) at 600 nm. The MICs were taken as the lowest drug concentration at which a visible growth of microorganisms was inhibited. All experiments were conducted in triplicate and included positive (growth) and negative (sterility) controls.

Assay [7] has as its system human keratinocytes (HaCaT). Format: cell-based. The settings on record: 24 h. The protocol: The cytotoxicity of test compounds (IC50) was evaluated for human keratinocytes (HaCaT, ATCC) using classic MTT assay on 96-well plates. In this assay, a colorimetric determination of the cell metabolic activity was carried out. Specifically, the color intensity reflects the number of live cells that can be measured spectrophotometrically. […] A day after plating 500 cells per well, a series of concentrations (0.5–500 μg/mL) of the test compounds were added. Dimethyl sulfoxide (DMSO) was used as a control in cells at a final concentration of 1.0% (v/v), which was related to the maximal concentration of the solvent compounds used in the experiment. After 24 h of incubation with test compounds, a medium containing 1 mg/mL of MTT was added up to a final concentration of 0.5 mg/mL and subsequently incubated at 37 °C for 4 h. Then, the medium was aspirated and the formazan product was solubilized with DMSO. The background absorbance at 630 nm was subtracted from that at 570 nm for each well (Epoch, BioTek Instruments, Winooski, VT, USA). Six replicates were conducted for each concentration. All experiments were repeated at least twice and the resulting IC50 values were calculated with a GraFit 7 software (v. 7.0, Erithacus, Berkley, CA, USA).

The subject of assay [8] is P. aeruginosa ATCC 9027. Format: cell-based, Pseudomonas aeruginosa. The settings on record: ATCC 9027, 18 h. As for the experimental part:
(§2) Examination of antimicrobial activity of the test compounds was conducted on reference strains of bacteria assigned to ESKAPE group of pathogens: Enterococcus faecium ATCC 700221, Klebsiella pneumoniae ATCC 700603, Acinetobacter baumannii ATCC BAA-1605, Pseudomonas aeruginosa ATCC 9027, Klebsiella aerogenes ATCC 13048 (formerly Enterobacter aerogenes) and reference strains of Staphylococcus aureus, namely: S. aureus ATCC 25923, S. aureus ATCC 6538, S. aureus ATCC 33591 (MRSA), S. aureus ATCC 9144 and S. aureus ATCC 12598. All the strains were stored at −80 °C in Roti®-Store cryo vials (Carl Roth GmbH, Karlsruhe, Germany) and before the tests were transferred into fresh Mueller-Hinton Medium (BioMaxima, Lublin, Poland) and incubated for 24 h at 37 °C. Subsequently, each bacterial inoculum was seeded on Mueller-Hinton Agar plates (BioMaxima) and incubated again for 24 h. The cultures prepared in this way were used in further antimicrobial assays and prepared as described above. The MIC values were determined by the broth microdilution method according to Clinical and Laboratory Standards Institute Protocol. For this purpose, initial inoculums of bacteria (0.5 × 10^5 colony forming unit (CFU)/mL) in Mueller–Hinton Broth were exposed to the ranging concentrations of compounds (0.5–256 µg/mL) and incubated for 18 h at 37 °C. The experiments were conducted on 96-well microtiter plates, with a final volume of 100 µL. Cell densities were adjusted spectrophotometrically (Multiskan™ GO Microplate Spectrophotometer, Thermo Scientific) at 600 nm. The MICs were taken as the lowest drug concentration at which a visible growth of microorganisms was inhibited. All experiments were conducted in triplicate and included positive (growth) and negative (sterility) controls.

Assay [9] concerns E. faecium ATCC 700221. Format: cell-based, Enterococcus faecium. The settings on record: ATCC 700221, 18 h. The protocol: as §2
The test system of assay [10] is S. aureus ATCC 6538. Format: cell-based, Staphylococcus aureus. The settings on record: ATCC 6538, 18 h. The protocol:
as §2

Assay [11] has as its system S. aureus ATCC 9144. Type of assay: cell-based, Staphylococcus aureus. The settings on record: ATCC 9144, 18 h. The protocol: as §2
In assay [12] the test system is S. aureus ATCC 25923. Format: cell-based, Staphylococcus aureus. The settings on record: ATCC 25923, 18 h. As for the experimental part: as §2
Assay [13] has as its system S. aureus ATCC 33591 (MRSA). Format: cell-based, Staphylococcus aureus. The settings on record: ATCC 33591, 18 h. As for the experimental part: as §2
Assay [14] relates to S. aureus ATCC 12598. Format: cell-based, Staphylococcus aureus. The settings on record: ATCC 12598, 18 h. As for the experimental part:
as §2

Assay [15] has as its system K. aerogenes ATCC 13048. Type of assay: cell-based, Klebsiella aerogenes. The settings on record: ATCC 13048, 18 h. The protocol: as §2
Assay [16] relates to K. pneumoniae ATCC 700603. Format: cell-based, Klebsiella pneumoniae. The settings on record: ATCC 700603, 18 h. The protocol: as §2
Assay [17] relates to A. baumannii ATCC BAA-1605. Type of assay: cell-based, Acinetobacter baumannii. The settings on record: ATCC BAA-1605, 18 h. The protocol: as §2

By IC50 is commonly meant the concentration that gives 50% inhibition. High values mean a need for much substance, low ones inhibition by little substance. The MIC is the least concentration at which growth counts as inhibited. A lower MIC goes with inhibition by little substance.

Converted amounts (≈) assume the structure as drawn. Peptide text beside a SMILES is read from it. * marks the point of attachment. Myristoyl = CCCCCCCCCCCCCC(=O)*; Decanoyl = CCCCCCCCCC(=O)*

Consider “Ac-KRIVQRIKDFLR-NH2 [I, Ac-KR12-NH2 (C2-KR12-NH2)]”, for which the MBEC in [1], in assay [2], in [3], in assay [4] and in assay [5] was >256 µg/mL in each case. In addition, the “GM (geometric mean of the MIC values against S. aureus)” value (“GM” for short) in assay [6] is >256.00 µg/mL. In addition, in [7], the IC50 was 84.20 µg/mL. Further, the MIC in assay [8] is given as 64 µg/mL; in assay [9], 16 µg/mL; in assay [10], 256 µg/mL; in assay [11], >256 µg/mL; in assay [12], >256 µg/mL; in [13], >256 µg/mL. In addition, the minimal inhibitory concentration (MIC) in [14], in assay [15], in assay [16] and in assay [17] was >256 µg/mL in each case.

`CCCCCCCCCC(=O)N[C@@H](CCCCN)C(=O)N[C@@H](CCCNC(=N)N)C(=O)N[C@H](C(=O)N[C@H](C(=O)N[C@@H](CCC(N)=O)C(=O)N[C@@H](CCCNC(=N)N)C(=O)N[C@H](C(=O)N[C@@H](CCCCN)C(=O)N[C@@H](CC(=O)O)C(=O)N[C@@H](Cc1ccccc1)C(=O)N[C@@H](CC(C)C)C(=O)N[C@@H](CCCNC(=N)N)C(N)=O)[C@@H](C)CC)C(C)C)[C@@H](C)CC` [V, C10-KR12-NH2] (Decanoyl-KRIVQRIKDFLR-NH2): the MBEC in assay [1] stood at 32 µg/mL; in assay [2], 16 µg/mL; in assay [3], 8 µg/mL; in [4] it was 32 µg/mL; in [5], 32 µg/mL. Further, in assay [6], the “GM” value came to 4.00 µg/mL. In assay [7], this compound returned an IC50 of 5.97 µg/mL (≈ 3.46 µM). The MIC came out at 8 µg/mL (≈ 4.64 µM) in [8]; 2 µg/mL (≈ 1.16 µM) in assay [9]; 4 µg/mL (≈ 2.32 µM) in assay [10]; 4 µg/mL (≈ 2.32 µM) in assay [11]; 4 µg/mL (≈ 2.32 µM) in [12]; 4 µg/mL (≈ 2.32 µM) in [13]. In addition, the MIC in assay [14] was 4 µg/mL (≈ 2.32 µM); in assay [15], 16 µg/mL (≈ 9.27 µM); in [16], 16 µg/mL (≈ 9.27 µM); in [17] it was 8 µg/mL (≈ 4.64 µM).

With `CCCCCCCCCCCCCC(=O)N[C@@H](CCCCN)C(=O)N[C@@H](CCCNC(=N)N)C(=O)N[C@H](C(=O)N[C@H](C(=O)N[C@@H](CCC(N)=O)C(=O)N[C@@H](CCCNC(=N)N)C(=O)N[C@H](C(=O)N[C@@H](CCCCN)C(=O)N[C@@H](CC(=O)O)C(=O)N[C@@H](Cc1ccccc1)C(=O)N[C@@H](CC(C)C)C(=O)N[C@@H](CCCNC(=N)N)C(N)=O)[C@@H](C)CC)C(C)C)[C@@H](C)CC` [VII, C14-KR12-NH2] (Myristoyl-KRIVQRIKDFLR-NH2), the MBEC in assay [1] is reported as 256 µg/mL; in assay [2] it was 128 µg/mL; in [3], 64 µg/mL; in [4] it was 256 µg/mL; in assay [5], 256 µg/mL. Besides, in assay [6], the “GM” value came to 64.00 µg/mL. This compound returned an IC50 in assay [7] of 1.29 µg/mL (≈ 0.724 µM). Further, the MIC in [8] worked out at 128 µg/mL (≈ 71.9 µM); in assay [9], 8 µg/mL (≈ 4.49 µM); in assay [10] it was 64 µg/mL (≈ 35.9 µM); in [11] it was 64 µg/mL (≈ 35.9 µM); in assay [12], 128 µg/mL (≈ 71.9 µM); in assay [13] it was 16 µg/mL (≈ 8.98 µM). Further, the MIC in [14] is given as 128 µg/mL (≈ 71.9 µM); in assay [15], 128 µg/mL (≈ 71.9 µM); in assay [16], 64 µg/mL (≈ 35.9 µM); in assay [17], 32 µg/mL (≈ 18 µM).

The record behind these values is publication PMC7036753, “Lipidated Analogs of the LL-37-Derived Peptide Fragment KR12—Structural Analysis, Surface-Active Properties and Antimicrobial Activity” (International Journal of Molecular Sciences, 2020).
